Series [1] has as its system Rat2 fibroblasts stably transformed with v-Src/Hu c-Src fusion gene. As to the kind of experiment: Anchorage independent Src-transformed fibroblast proliferation assay. It is filed as cell-based, rat. Conditions: for inhibition at 100 µM / inhibition at 10 µM: Rat2, Table 1; for inhibition at 100 µM: read-out: Src cells % inh at 100 μM; for Src cells % inh at 100 μM / IC50: Table 1; for inhibition at 10 µM: read-out: Src cells % inh at 10 μM; for IC50: suspension growth, MTS readout Day 5, read-out: Src cells IC50. As to the method: Anchorage Independent Src-Transformed Fibroblast Proliferation Assay Rat2 fibroblasts stably transformed with a plasmid containing a CMV promotor controlled v-Src/Hu c-Src fusion gene in which the catalytic domain of human c-Src was inserted in place of the v-Src catalytic domain in the v-Src gene are used for the measurement of src dependent suspension growth. […] Multiple entries for a given compound indicate that it was tested multiple times.

Molecules are shown by their SMILES. Where two headings read alike, the source gives them in different places.

Take `COc1cc(Nc2c(C#N)cnc3sc(-c4ccc(C=O)cc4)cc23)c(Cl)cc1Cl` [Example 27, 4-[(2,4-Dichloro-5-methoxyphenyl)amino]-2-(4-formylphenyl)thieno[2,3-b]pyridine-5-carbonitrile]: the melting point was more than 240 °C. For the same molecule, in series [1] (Rattus norvegicus), the inhibition at 100 µM was determined as 19%. Also, the “Src cells % inh at 100 μM” value in series [1] is recorded as 28%.

Regarding `N#Cc1cnc2cc(Br)sc2c1Nc1ccc(Oc2ccccc2)cc1` [Example 48, 2-Bromo-7-[(4-phenoxyphenyl)amino]thieno[3,2-b]pyridine-6-carbonitrile], the melting point lay in the range of 248 to 250 °C. The inhibition at 100 µM in series [1] (Rattus norvegicus) was determined as 30%.

In the case of `N#Cc1cnc2ccsc2c1Sc1ccc(Cl)cc1Cl` [Example 12, 7-[(2,4-Dichlorophenyl)thio]thieno[3,2-b]pyridine-6-carbonitrile], the melting point lay within 126 to 128 °C. Moreover, the inhibition at 10 µM in series [1] (Rattus norvegicus) turned out to be 23%.

For the molecule `N#Cc1cnc2ccsc2c1Nc1ccc(Cl)cc1Cl` [Example 10, 7-[(2,4-Dichlorophenyl)amino]thieno[3,2-b]pyridine-6-carbonitrile], the melting point lay in the range of 198 to 200 °C. Moreover, the IC50 in series [1] (Rattus norvegicus, Rat2, 120 h) was 39 µM.

For `N#Cc1cnc2cc(-c3ccc(CO)cc3)sc2c1Nc1ccc(Oc2ccccc2)cc1` [Example 46, 2-[4-(Hydroxymethyl)phenyl]-7-[(4-phenoxyphenyl)amino]thieno[3,2-b]pyridine-6-carbonitrile], the melting point fell in the range of 225 to 228 °C. In addition, the inhibition at 100 µM in series [1] (Rattus norvegicus) is 26%.

As to `COc1cc(Nc2c(C#N)cnc3cc(-c4ccsc4C=O)sc23)c(Cl)cc1Cl` [Example 78, 7-[(2,4-dichloro-5-methoxyphenyl)amino]-2-(2-formylthien-3-yl)thieno[3,2-b]pyridine-6-carbonitrile], the melting point fell in the range of 128 to 130 °C.

Regarding `CCOc1cc(Nc2c(C#N)cnc3cc(I)sc23)c(Cl)cc1Cl` [Example 110, 7-[(2,4-dichloro-5-ethoxyphenyl)amino]-2-iodothieno[3,2-b]pyridine-6-carbonitrile], the melting point was 232 to 233 °C.

Molecule `COc1ccc(C#Cc2cc3ncc(C#N)c(Nc4cc(OC)c(Cl)cc4Cl)c3s2)cc1` [Example 21, 7-[(2,4-Dichloro-5-methoxyphenyl)amino]-2-[(4-methoxyphenyl)ethynyl]thieno[3,2-b]pyridine-6-carbonitrile] gave a melting point of 249 to 250 °C. Further, in series [1] (Rattus norvegicus, Rat2, 120 h), the concentration for half-maximal inhibition (IC50) came to 32 µM.

Regarding `N#Cc1cnc2cc(I)sc2c1Nc1ccc(Oc2ccccc2)cc1` [Example 42, 2-Iodo-7-[(4-phenoxyphenyl)amino]thieno[3,2-b]pyridine-6-carbonitrile], the melting point was in the range of 260 to 262 °C. The inhibition at 100 µM in series [1] (Rattus norvegicus) worked out at 5%.

Consider `COc1cc(Nc2c(C#N)cnc3sc(CCCCN4CCOCC4)cc23)cc(OC)c1OC` [Example 31, 2-[4-(4-Morpholinyl)butyl]-4-[(3,4,5-trimethoxyphenyl)amino]-thieno[2,3-b]pyridine-5-carbonitrile], for which the half-maximal inhibitory concentration (IC50) in series [1] (Rattus norvegicus, Rat2, 120 h) came out at 35 µM.

The molecule `COc1cc(Nc2c(C#N)cnc3cc(C#CCN(C)C)sc23)c(Cl)cc1Cl` [Example 23, 7-[(2,4-Dichloro-5-methoxyphenyl)amino]-2-[3-(dimethylamino)prop-1-ynyl]thieno[3,2-b]pyridine-6-carbonitrile] showed a melting point of 164 to 166 °C. In series [1] (Rattus norvegicus, Rat2, 120 h), the 50% inhibitory concentration (IC50) was 5.6 µM.

For the molecule `COc1cc(Nc2c(C#N)cnc3cc(/C=C/C(=O)OC(C)(C)C)sc23)c(Cl)cc1Cl` [Example 50, tert-Butyl (2E)-3-{6-cyano-7-[(2,4-dichloro-5-methoxyphenyl)amino]thieno[3,2-b]pyridin-2-yl}prop-2-enoate], the melting point is 224 °C (dec.). In addition, the 50% inhibitory concentration (IC50) in series [1] (Rattus norvegicus, Rat2, 120 h) is 7.4 µM.

Turning to `COc1cc(Nc2c(C#N)cnc3sc(C#CCN4CCN(C)CC4)cc23)c(Cl)cc1Cl` [Example 51, 4-[(2,4-Dichloro-5-methoxyphenyl)amino]-2-[3-(4-methylpiperazin-1-yl)prop-1-ynyl]thieno[2,3-b]pyridine-5-carbonitrile], the melting point was 175 °C (dec.). The 50% inhibitory concentration (IC50) in series [1] (Rattus norvegicus, Rat2, 120 h) turned out to be 9.9 µM.

For `COc1cc(Nc2c(C#N)cnc3cc(-c4csc(C5OCCO5)c4)sc23)c(Cl)cc1Cl` [Example 36, 7-[(2,4-Dichloro-5-methoxyphenyl)amino]-2-[5-(1,3-dioxolan-2-yl)thien-3-yl]thieno[3,2-b]pyridine-6-carbonitrile], the melting point fell in the range of 219 to 221 °C. The IC50 in series [1] (Rattus norvegicus, Rat2, 120 h) was determined as 1.6 µM.

For the molecule `COc1cc(Nc2c(C#N)cnc3cc(-c4cccc(C=O)c4)sc23)c(Cl)cc1Cl` [Example 25, 7-[(2,4-Dichloro-5-methoxyphenyl)amino]-2-(3-formylphenyl)thieno[3,2-b]pyridine-6-carbonitrile], the melting point lay in the range of 262 to 263 °C. Also, the 50% inhibitory concentration (IC50) in series [1] (Rattus norvegicus, Rat2, 120 h) was found to be 1.1 µM.

The molecule `COc1cc(Nc2c(C#N)cnc3cc(C#CCN4CCN(C)CC4)sc23)cc(OC)c1OC` [Example 57, 2-[3-(4-Methylpiperazin-1-yl)prop-1-ynyl]-7-[(3,4,5-trimethoxyphenyl)amino]thieno[3,2-b]pyridine-6-carbonitrile] came in with a melting point of 180 to 182 °C. The inhibition at 100 µM in series [1] (Rattus norvegicus) was determined as 70%.

On to `COc1cc(Nc2c(C#N)cnc3c(Br)csc23)c(Cl)cc1Cl` [Example 139, 3-Bromo-7-[(2,4-dichloro-5-methoxyphenyl)amino]thieno[3,2-b]pyridine-6-carbonitrile], for which the melting point lay in the range of 265 to 266 °C.

Take `COc1cc(Nc2c(C#N)cnc3cc(C#Cc4ccccn4)sc23)c(Cl)cc1Cl` [Example 22, 7-[(2,4-Dichloro-5-methoxyphenyl)amino]-2-(pyridin-2-ylethynyl)thieno[3,2-b]pyridine-6-carbonitrile]: the melting point lay in the range of 237 to 239 °C. The IC50 in series [1] (Rattus norvegicus, Rat2, 120 h) was 1 µM.

In turn, `COc1cc(Nc2c(C#N)cnc3cc(C#CCN4CCN(C)CC4)sc23)c(Cl)cc1Cl` gave a melting point of 172 to 173 °C.

`COc1cc(Nc2c(C#N)cnc3cc(-c4ccc(CN5CCN(C)CC5)cc4)sc23)c(Cl)cc1Cl` [Example 16, 7-[(2,4-Dichloro-5-methoxyphenyl)amino]-2-[4-(4-methylpiperazin-1-ylmethyl)phenyl]thieno[3,2-b]pyridine-6-carbonitrile] had a melting point of 226 to 228 °C.

For the molecule `COc1cc(Nc2c(C#N)cnc3sc(C)cc23)c(Cl)cc1Cl` [Example 8, 4-[(2,4-Dichloro-5-methoxyphenyl)amino]-2-methylthieno[2,3-b]pyridine-5-carbonitrile], the melting point lay in the range of 179 to 181 °C. Further, in series [1] (Rattus norvegicus), the inhibition at 10 µM came out at 33%.

`COC(=O)CCCc1cc2c(Nc3cc(OC)c(OC)c(OC)c3)c(C#N)cnc2s1` [Example 29, 4-[5-Cyano-4-(3,4,5-trimethoxyphenylamino)-thieno[2,3-b]pyridin-2-yl]-butyric acid methyl ester] came in with a melting point of 101 to 103 °C.

`COc1cc(Nc2c(C#N)cnc3sc(CCCCO)cc23)cc(OC)c1OC` [Example 30, 2-(4-Hydroxybutyl)-4-[(3,4,5-trimethoxyphenyl)amino]-thieno[2,3-b]pyridine-5-carbonitrile]: the melting point lay within 125 to 127 °C. For the same molecule, the IC50 in series [1] (Rattus norvegicus, Rat2, 120 h) worked out at 23 µM. Also, the IC50 in series [1] was 25 µM.

Consider `Cn1ccnc1Sc1ccc(Nc2c(C#N)cnc3cc(-c4ccc(C=O)cc4)sc23)cc1Cl` [Example 97, 7-({3-chloro-4-[(1-methyl-1H-imidazol-2-yl)thio]phenyl}amino)-2-(4-formylphenyl)thieno[3,2-b]pyridine-6-carbonitrile], for which the melting point is 279 to 281 °C.

Consider `CN(C)c1ccc(-c2cc3ncc(C#N)c(Nc4ccc(Cl)cc4Cl)c3s2)cc1` [Example 126, 7-[(2,4-dichlorophenyl)amino]-2-[4-(dimethylamino)phenyl]thieno[3,2-b]pyridine-6-carbonitrile], for which the melting point is 239 to 241 °C.

`COc1cc(Nc2c(C#N)cnc3cc(-c4coc(C=O)c4)sc23)c(Cl)cc1Cl` [Example 138, 7-[(2,4-dichloro-5-methoxyphenyl)amino]-2-(5-formyl-3-furyl)thieno[3,2-b]pyridine-6-carbonitrile] had a melting point of 223 to 224 °C.

For the molecule `COc1cc(Nc2c(C#N)cnc3cc(/C=C/C(=O)O)sc23)c(Cl)cc1Cl` [Example 53, (2E)-3-(6-Cyano-7-[(2,4-dichloro-5-methoxyphenyl)amino]thieno[3,2-b]pyridin-2-yl)prop-2-enoate], the “Src cells % inh at 100 μM” value in series [1] was 45%.

In turn, `COc1cc(N(C(C)=O)c2c(C#N)cnc3ccsc23)c(Cl)cc1Cl` [Example 63, N-(6-Cyanothieno[3,2-b]pyridin-7-yl)-N-(2,4-dichloro-5-methoxyphenyl)acetamide] returned a melting point of 202 to 204 °C.

`N#Cc1cnc2cc(-c3ccc(C=O)cc3)sc2c1Nc1ccc(Cl)cc1Cl` [Example 115, 7-[(2,4-dichlorophenyl)amino]-2-(4-formylphenyl)thieno[3,2-b]pyridine-6-carbonitrile] displayed a melting point of 170 to 171 °C.

Take `Cn1ccnc1Sc1ccc(Nc2c(C#N)cnc3cc(I)sc23)cc1Cl` [Example 82, 7-({3-chloro-4-[(1-methyl-1H-imidazol-2-yl)thio]phenyl}amino)-2-iodothieno[3,2-b]pyridine-6-carbonitrile]: the melting point was in the range of 290 to 291 °C.

Molecule `N#Cc1cnc2cc(I)sc2c1Nc1ccc(Cl)cc1Cl` [Example 102, 7-[(2,4-dichlorophenyl)amino]-2-iodothieno[3,2-b]pyridine-6-carbonitrile] came in with a melting point of 230 to 233 °C.

Turning to `COc1cc(Nc2c(C#N)cnc3sc(-c4ccc(CN5CCOCC5)cc4)cc23)c(Cl)cc1Cl`, the melting point lay within 106 to 108 °C.

Values taken from patent US7276519B2, “Thieno[3,2-b]pyridine-6-carbonitriles and thieno[2,3-b]pyridine-5-carbonitriles as protein kinase inhibitors” (Wyeth, priority 2002, dated 2007).
